Here are results for three compounds from US20150307539A1, “USE OF SULPHATED G[…] PROMOTERS OF NEURITIC GROWTH, M[…] INHIBITING THE PROLIFERATION OF ASTROGLIA AND MICROGLIA” (CONSEJO SUPERIOR DE INVESTIGACIONES CIENTIFICAS (CSIC), priority 2012, published 2015).

One experiment concerns N13 microglia. As to the kind of experiment: Inhibition of microglial cell proliferation, N13. The class given is cell-based, mouse. The conditions noted are these: for IC50: N13, microglia, mouse, IC50 ± SE. The source says:
(§1) To study the microglial and astroglial cell proliferation two cell lines of murine microglia were used (BV-2, N13), as well as primary astroblasts isolated from cerebral cortices of postnatal rats on day zero (P0). The cells were kept in DMEM plus 10% SBF, grown and treated for testing the inhibition of cell proliferation, as published earlier by the applicants (I. Garcia-Alvarez et al., J Med Chem 50, 364 (Jan. 25, 2007)). […] It was concluded that the inhibitory activity of IG20-NBD is not affected by the presence of the fluorescent group, as its IC50 is very similar to that obtained for the uncombined glycoside IG-20, which was used as a control in these tests.

The subject of experiment [1] is Astrocytes (primary astroblasts from cerebral cortices of postnatal rats). As to the kind of experiment: Inhibition of astroglial cell proliferation, primary astroblasts. The class given is cell-based, rat. The conditions noted are these: for IC50: Astrocytes, astroglia, rat, IC50 ± SE.
Source text: as §1

The test system of experiment [2] is neurons of spinal ganglia (SG) of rat embryos (E15). Put plainly: Neuritic outgrowth of spinal ganglia neurons co-cultured on aldynoglia. The class given is cell-based. Here is the method:
Spinal ganglia (SG) of rat embryos (E15) were dissected and incubated for 12 hours on axon growth-promoting cells (aldynoglia) to allow cellular adhesion of the neurons contained in the SG to the aldynoglia substrate. Next, different concentrations of IG-20, compound 3 produced as described in the synthesis examples, were added. […] The presence of total cells is shown by the fluorescent signal of the Hoechst-marked nuclei (FIG. 1a, 1b, 1c). The nuclei remote from the central body are aldynoglia cells or those that migrate from the SG. The neurofilament images were extracted (FIG. 1g, 1h, 1i) and measured, and the neuritic growth area was compared to the controls (FIG. 1j, 1k). […] A net increase in the neuritic growth area of 1250 μm^2 more than the control with aldynoglia cells (FIG. 1k) was produced. The average speed of neuritic outgrowth in the presence of aldynoglia, 625 μm/72 h corresponding to […], was duplicated in the presence of IG-20 (5 μM) up to 1250 μm/72 h, which corresponds to 17.36 μm/h. Calibration bars at 500 μm; (*) correspond to P<0.05 (P=0.019).

For experiment [3], the system named is oligodendrocytes and astroglia from cerebral cortices of postnatal rats P0-P1. Put plainly: Oligodendrocyte growth, myelin (MBP) expression and astroglia (GFAP) inhibition in cortical glial culture. The class given is cell-based, rat. The conditions noted are these: 30 μM, two weeks culture. Here is the method:
To study how the compound having formula I affects the growth of oligodendrocytes, the expression of myelin and the inhibition of astroglia, cerebral cortices of postnatal rats P0-P1 were dissected and enzymatically dissociated for cell culture. After two weeks incubation the culture flasks were stirred for 12 hours. The cells in suspension were harvested, the microglia were removed, and then cultured in DMEM plus SBF 10%. It was incubated for 6 hours to facilitate cell adhesion and the IG-20 (30 μM) was added to the treated group. The cells were cultured for two weeks and the medium was replaced every three days.
In both cases the differences were very significant. It was notable that the astroglial cells were large compared with the oligodendrocytes, which could scarcely be detected in the untreated controls (arrow in 2a, b). […] GFAP, glial fibrillary acidic protein; MBP, myelin basic protein; calibration bars at 75 μm (a, c) and 25 μm (b), as shown; (***) corresponds to P<0.001.

For the next experiment, the system named is BV-2 microglia. Put plainly: Inhibition of microglial cell proliferation, BV-2. The class given is cell-based. The conditions noted are these: mouse, IC50 ± SE.
Source text: as §1

In experiment [4] the target is T1, RhoGDIα protein (Rattus norvegicus, UniProt Q5XI73).
T1 construct: This was verified by RhoGDIα immunoprecipitation in the microglial cell line BV-2, and also in primary astrocyte cultures; endogenous in cells; host or cells: primary astrocyte cultures
T1 sequence (Q5XI73 1-204): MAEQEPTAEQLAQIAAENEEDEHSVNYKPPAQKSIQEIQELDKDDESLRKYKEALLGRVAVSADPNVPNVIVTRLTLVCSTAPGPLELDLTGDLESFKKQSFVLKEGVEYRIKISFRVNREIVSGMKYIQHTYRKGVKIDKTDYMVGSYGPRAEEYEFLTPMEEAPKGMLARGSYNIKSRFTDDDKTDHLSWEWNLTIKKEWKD
As to the kind of experiment: Co-immunoprecipitation with anti-RhoGDIα antibody (Western blot and MS), primary astrocytes. The class given is binding. The settings on record: primary astrocytes treated with 30 μM, cytosol fraction. Here is the method: (§2) Primary astrocyte and microglia cells (BV-2) were treated with the glycoside IG-20 at 30 μM, lysed and subjected to cell fractionation by differential centrifugation. The soluble fraction was collected and mixed with lysis buffer (1:1). Anti-RhoGDIα antibody (15 μg) was added and it was incubated with rotation at 4° C. overnight. It was immunoprecipitated with Protein A-Sepharose (20 μl) having been previously washed with PBS and centrifuged for 3 minutes at 1100 rpm. The previous mixture was added to the Protein A-Sepharose (1:1). This mixture was incubated with rotation at 4° C. for an hour and a half, and afterwards centrifuged for 5 minutes at 2500 rpm at 4° C. After discarding the supernatant, the precipitate was washed three times with lysis buffer. The immunocomplex of the Protein A-Sepharose was eluted with five volumes of the elution buffer (0.1 M glycine, pH=2.9) and a neutralising volume of 1M tris-HCl, pH=9. The mixture was centrifuged for five minutes at 2500 rpm at 4° C. and the supernatant was collected. […]
(§3) This was verified by RhoGDIα immunoprecipitation in the microglial cell line BV-2, and also in primary astrocyte cultures. […] This was detected by MS as a peak in the mass to charge ratio of 550 (FIG. 4c, 4d), which corresponds to the synthetic glycoside. […]
In general terms: Immunoblotting shows a protein as a band on a membrane.

Experiment [5] deals with T2, RhoGDIα protein (Mus musculus, UniProt Q99PT1).
T2 construct: This was verified by RhoGDIα immunoprecipitation in the microglial cell line BV-2; endogenous in cells; host or cells: BV-2 microglial cell line
T2 sequence (Q99PT1 1-204): T1 sequence (Q5XI73 1-204)
As to the kind of experiment: Co-immunoprecipitation with anti-RhoGDIα antibody (Western blot and MS), BV-2 microglia. The class given is binding. The conditions noted are these: BV-2 microglia treated with 30 μM, cytosol fraction. The procedure:
as §2, §3

The term IC50 denotes the point on the concentration scale where inhibition reaches its midpoint. As for `CCCCCCCC/C=C\CCCCCCCCO[C@H]1O[C@H](COS(=O)(=O)[O-])[C@@H](O)[C@H](OS(=O)(=O)[O-])[C@H]1NC(=O)C(F)(F)F.[K+].[K+]` [Disulphated IG-20, potash from oleyl N-trifluoroacetyl-3,6-O-di-(oxo-sulphonyl)-α-D-glucosaminide], the IC50 in the experiment with N13 microglia came out at 3 ± 0.8 µM; in experiment [1], 30 µM. In the experiment with N13 microglia (microglia), the “microglial inhibition compared with IG-20” value was “microglial inhibition was not affected”. For the same compound, in experiment [1] (30 μM compared with 9.3 μM), the “activity in astrocytes compared with IG-20” value is reported as “reduced its activity by three”.
On to `CCCCCCCC/C=C\CCCCCCCCO[C@H]1O[C@H](COS(=O)(=O)[O-])[C@@H](O)[C@H](O)C1NC(C)=O.[K+]` (stereo partly drawn) [IG-20, potash from oleyl N-acetyl-6-O-(oxo-sulphonyl)-α-D-glucosaminide], for which, in experiment [2] (5 μM, 3 days incubation), the “net increase in the neuritic growth area more than the control with aldynoglia cells” value is reported as 1250 μm^2. The “neuritic outgrowth compared with control aldynoglia” value in experiment [2] (5 μM, 3 days incubation, SG/aldynoglia co-culture) is “profuse and significant increase in neuritic outgrowth”. Further, in experiment [2] (5 μM, control aldynoglia 8.3 μm/h), the “average speed of neuritic outgrowth” value is 17.36 μm/h. In addition, in experiment [2] (5 μM, control aldynoglia 625 μm/72 h), the “average speed of neuritic outgrowth” value came to 1250 μm/72 h. For the same compound, the “neuritic outgrowth at five-fold increased concentration” value in experiment [2] (five-fold increase of 5 μM, 3 days incubation) is “reduced this neuritic outgrowth”. Further, in experiment [3], the “GFAP marking compared with untreated control” value was “dramatic reduction in GFAP marking”; the “MBP signal compared with untreated control” value is “increase in the MBP signal”; the “increase of mature oligodendroglia, MBP+” value came out at 10%; the “oligodendrocyte size relative to controls” value is 3-4 times larger than the controls. Besides, the “reduction of the proportion of GFAP+ cells (astroglia)” value in experiment [3] turned out to be 20%. The IC50 with BV-2 microglia is 21 µM. In addition, half-maximal inhibition in the experiment on N13 microglia (IC50) was put at 3.4 µM. The compound further returned an IC50 in experiment [1] (Astrocyte) of 9.3 µM. For the same compound, at RhoGDIα protein [4], the “interaction with RhoGDIα (co-immunoprecipitation)” value is “interacts directly with the RhoGDIα protein”. Besides, at RhoGDIα protein [5], the “interaction with RhoGDIα (co-immunoprecipitation)” value is “interacts directly with the RhoGDIα protein”.
For the compound `CCCCCCCC/C=C\CCCCCCCCO[C@H]1O[C@H](COS(=O)(=O)O)[C@@H](O)[C@H](O)[C@H]1NC(=O)CCCCCNc1ccc([N+](=O)[O-])c2nonc12` [IG20-NBD, potash from oleyl 2-[6-(7-nitrobenzofurazan)-aminohexanamide]-6-O-(oxo-sulphonyl)-α-D-glucosaminide], the IC50 with N13 microglia was determined as 7.8 µM; in experiment [1] (Astrocyte) it was 11.4 µM.
